Assay results: article PMC6006164, “Natural cyclopeptide RA-V inhibits the NF-κB signaling pathway by targeting TAK1” (Cell Death & Disease, 2018)

Key:
[1] = target: T1, TAK1–TAB1 interaction (Homo sapiens, UniProt O43318+Q15750); assay: Co-immunoprecipitation of TAK1 and TAB1; type: cell-based; details: HEK293T, Flag-TAK1 and HA-TAB1; RA-V 800 nM 6 h
T1 construct: expressed in transfected cells; host or cells: HEK293T
T1 sequence (O43318 1-579 isoform O43318-2): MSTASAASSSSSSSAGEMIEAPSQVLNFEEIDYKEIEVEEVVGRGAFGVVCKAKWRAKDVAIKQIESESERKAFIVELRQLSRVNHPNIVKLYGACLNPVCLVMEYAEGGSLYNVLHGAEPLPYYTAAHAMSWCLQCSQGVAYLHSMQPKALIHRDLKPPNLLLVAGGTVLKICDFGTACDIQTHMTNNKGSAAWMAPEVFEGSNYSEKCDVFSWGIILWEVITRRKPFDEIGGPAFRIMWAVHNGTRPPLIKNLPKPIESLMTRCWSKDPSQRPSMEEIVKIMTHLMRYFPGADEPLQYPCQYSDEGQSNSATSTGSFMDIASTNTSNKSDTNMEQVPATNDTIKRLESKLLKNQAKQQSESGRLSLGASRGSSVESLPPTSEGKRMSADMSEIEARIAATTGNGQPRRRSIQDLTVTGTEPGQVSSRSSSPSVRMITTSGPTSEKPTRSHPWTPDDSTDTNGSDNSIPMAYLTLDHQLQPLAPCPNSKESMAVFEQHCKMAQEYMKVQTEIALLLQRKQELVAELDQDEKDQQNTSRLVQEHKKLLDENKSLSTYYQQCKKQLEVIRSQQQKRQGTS
T1 sequence (Q15750 1-504 partner): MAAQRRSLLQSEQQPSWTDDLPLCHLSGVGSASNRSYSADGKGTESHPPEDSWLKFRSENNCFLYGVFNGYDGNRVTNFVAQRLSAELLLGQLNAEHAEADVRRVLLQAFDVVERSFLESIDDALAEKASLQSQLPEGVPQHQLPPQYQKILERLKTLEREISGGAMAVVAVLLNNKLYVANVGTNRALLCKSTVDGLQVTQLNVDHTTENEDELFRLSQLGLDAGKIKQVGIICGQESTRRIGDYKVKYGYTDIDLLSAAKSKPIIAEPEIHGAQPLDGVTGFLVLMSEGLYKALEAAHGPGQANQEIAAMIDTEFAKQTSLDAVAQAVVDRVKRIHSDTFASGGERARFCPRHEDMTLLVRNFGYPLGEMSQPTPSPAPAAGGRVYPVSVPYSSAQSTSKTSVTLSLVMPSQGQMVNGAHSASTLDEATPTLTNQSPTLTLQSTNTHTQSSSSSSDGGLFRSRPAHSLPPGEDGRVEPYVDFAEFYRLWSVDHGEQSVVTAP
Experimental: Fig. 4 RA-V blocks the interaction between TAK1 and TAB2. a RA-V blocked the exogenous TAK1–TAB2 interaction. HEK293T cells were transfected with Flag-TAK1 and HA-TAB2 for 24 h and then incubated with various concentrations of RA-V for 6 h. […] HEK293T cells were transfected with Flag-TAK1 and HA-TRAF6 or HA-TAB1 for 24 h and then incubated with RA-V (800 nM) for 6 h. The cell lysates were immunoprecipitated with HA antibody, and immunoblots were performed with the indicated antibodies. d RA-V blocked the endogenous TAK1–TAB2 interaction. HEK293T (left) or RAW264.7 (right) cells were incubated with 800 nM RA-V for 6 h and stimulated with 10 ng/mL TNF-α for 2 h or 1 μg/mL LPS for 3 h, respectively. The cell lysates were immunoprecipitated with TAK1 antibody or control IgG and then immunoblotted with the indicated antibodies. Each experiment was repeated at least three times
The cell lysates were prepared using radioimmunoprecipitation (RIPA) buffer containing 50 mM Tris-HCl pH 7.4, 150 mM NaCl, 1 mM ethylenediaminetetraacetic acid, 1% Triton X-100, 0.5% deoxycholate, and 0.1% sodium dodecyl sulfate, to which protease inhibitors (Roche) were added. The lysates were incubated with the indicated antibodies before adding 20 μL of Protein A/G agarose for 2 h. After four washes with the same buffer, the immunoprecipitates were boiled in 2 × SDS loading buffer.

[2] = system: RAW264.7 cells; assay: LPS-induced NF-κB activation in RAW264.7 cells; type: cell-based; details: 1 μg/mL LPS 3 h, dose-dependent
Experimental: Fig. 1 RA-V inhibits TNF-α- and LPS-induced activation of NF-κB. a Chemical structure of RA-V. b RA-V inhibited the NF-κB signaling pathway in a dose-dependent manner. HEK293T or HeLa cells were transfected with the 5 × κB-luciferase and pTK-Renilla reporters. Twenty-four hours after transfection, the cells were incubated with various concentrations of RA-V for 6 h, and then treated with 10 ng/mL TNF-α for 2 h before the luciferase activity assay and MTT assay. c RA-V reduced TNF-α-induced expression of NF-κB target genes. HEK293T or HeLa cells were treated with various concentrations of RA-V for 24 h and stimulated with 10 ng/mL TNF-α for 2 h. The expression of the NF-κB target genes, IL-8, MCP-1, and E-selectin was measured by quantitative RT-PCR and normalized to GADPH expression. d RA-V inhibited TNF-α-induced p65 phosphorylation, IκBα phosphorylation and IκBα degradation. HEK293T or HeLa cells were incubated with various concentrations of RA-V for 24 h and treated with 10 ng/mL TNF-α for 10 min. The cell lysates were prepared and subjected to western blot analysis with the indicated antibodies. e RA-V inhibited TNF-α-induced IL-8 production. […] The expression of IL-6 was measured. h RA-V inhibited LPS-induced p65 phosphorylation, IκBα phosphorylation. […] The protein expression was measured. i RA-V inhibited LPS-induced IL-6 production. […] The expression of IL-6 was measured.

Substance: RA-V
- TAK1–TAB1 interaction [1]: does not disrupt
- LPS-induced IL-6 production, IκBα phosphorylation and p65 phosphorylation [2]: inhibited
